# Results from PubChem BioAssay (NCI).
#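 In this assay, cells in 96-well plates receive the compound at five concentrations for 48 hours. Endpoints are linearly interpolated between the surrounding concentrations. At the TGI there is no net growth.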
# Test system: UACC-257 melanoma
# Test: inhibition of tumour cell growth, NCI panel, 48 h
row,SMILES,TGI
1,COc1cc(OC)nc(-n2c(N)c(C#N)c3ccc([N+](=O)[O-])cc3c2=O)n1,> 100 µM
2,O=C(CCCN1CCC2(CC1)CC(=O)N(N1CCCCCC1)C2=O)c1ccccc1,> 100 µM
3,COc1ccc(-n2cnc3c2NC(C)(C)N=C3C(N)=O)c(OC)c1,> 100 µM
4,COc1cc(CO)c(CC(=O)NCCCc2ccccc2)cc1OC,> 100 µM
5,CC(=O)OCC1OC(c2nc3ccccc3s2)=CC(OC(C)=O)C1OC(C)=O (stereo not given),> 100 µM
6,Cc1cn(C2CC(O)C(COC(=O)NCCC(F)(F)C(F)(F)C(F)(F)C(F)(F)F)O2)c(=O)[nH]c1=O (stereo not given),> 100 µM
7,CC(C)(C)OC(=O)N1CCC(C(=O)O)CC1,> 100 µM
8,CCCCCCC(=O)O[C@H]1CC[C@H]2[C@@H]3CCC4C/C(=N/NC(=O)c5cccc6c(=O)c7ccccc7[nH]c56)C=C(C)[C@]4(C)[C@H]3CC[C@]12C (stereo not given in full),> 25 µM
9,COc1ccc(CNC(=O)NCn2cc(-c3ccccc3)nn2)cc1,> 100 µM

# Test system: A549 NSCLC
# Test: inhibition of tumour cell growth, NCI panel, 48 h
row,SMILES,TGI
1,CCOC(=O)c1nc2ccccc2nc1NCc1cc(OC)c(OC)c(OC)c1,> 100 µM
2,CCSc1n/c(=C\c2ccco2)c2nncn12,> 100 µM
3,O=C1CSC(c2ccc([N+](=O)[O-])cc2)N1c1ccc(-n2c(-c3ccccc3)nc3ccccc3c2=O)cc1 (stereo not given),> 100 µM
4,COc1cc(OC)nc(-n2c(N)c(C#N)c3ccc([N+](=O)[O-])cc3c2=O)n1,> 100 µM
5,O=C(CCCN1CCC2(CC1)CC(=O)N(N1CCCCCC1)C2=O)c1ccccc1,> 100 µM
6,COc1ccc(-n2cnc3c2NC(C)(C)N=C3C(N)=O)c(OC)c1,> 100 µM
7,COc1cc(CO)c(CC(=O)NCCCc2ccccc2)cc1OC,> 100 µM
8,CC(=O)OCC1OC(c2nc3ccccc3s2)=CC(OC(C)=O)C1OC(C)=O (stereo not given),> 100 µM
9,Cc1cn(C2CC(O)C(COC(=O)NCCC(F)(F)C(F)(F)C(F)(F)C(F)(F)F)O2)c(=O)[nH]c1=O (stereo not given),> 100 µM
10,CC(C)(C)OC(=O)N1CCC(C(=O)O)CC1,> 100 µM
11,CCCCCCC(=O)O[C@H]1CC[C@H]2[C@@H]3CCC4C/C(=N/NC(=O)c5cccc6c(=O)c7ccccc7[nH]c56)C=C(C)[C@]4(C)[C@H]3CC[C@]12C (stereo not given in full),> 25 µM
12,COc1ccc(CNC(=O)NCn2cc(-c3ccccc3)nn2)cc1,> 100 µM

# Test system: NCI-H23 lung
# Test: inhibition of tumour cell growth, NCI panel, 48 h
row,SMILES,TGI
1,CCOC(=O)c1nc2ccccc2nc1NCc1cc(OC)c(OC)c(OC)c1,> 100 µM
2,CCSc1n/c(=C\c2ccco2)c2nncn12,> 100 µM
3,O=C1CSC(c2ccc([N+](=O)[O-])cc2)N1c1ccc(-n2c(-c3ccccc3)nc3ccccc3c2=O)cc1 (stereo not given),> 100 µM
4,COc1cc(OC)nc(-n2c(N)c(C#N)c3ccc([N+](=O)[O-])cc3c2=O)n1,> 100 µM
5,O=C(CCCN1CCC2(CC1)CC(=O)N(N1CCCCCC1)C2=O)c1ccccc1,> 100 µM
6,COc1ccc(-n2cnc3c2NC(C)(C)N=C3C(N)=O)c(OC)c1,> 100 µM
7,COc1cc(CO)c(CC(=O)NCCCc2ccccc2)cc1OC,> 100 µM
8,CC(=O)OCC1OC(c2nc3ccccc3s2)=CC(OC(C)=O)C1OC(C)=O (stereo not given),> 100 µM
9,Cc1cn(C2CC(O)C(COC(=O)NCCC(F)(F)C(F)(F)C(F)(F)C(F)(F)F)O2)c(=O)[nH]c1=O (stereo not given),> 100 µM
10,CC(C)(C)OC(=O)N1CCC(C(=O)O)CC1,> 100 µM
11,CCCCCCC(=O)O[C@H]1CC[C@H]2[C@@H]3CCC4C/C(=N/NC(=O)c5cccc6c(=O)c7ccccc7[nH]c56)C=C(C)[C@]4(C)[C@H]3CC[C@]12C (stereo not given in full),> 25 µM
12,COc1ccc(CNC(=O)NCn2cc(-c3ccccc3)nn2)cc1,> 100 µM

# Test system: MDA-MB-435
# Test: inhibition of tumour cell growth, NCI panel, 48 h
row,SMILES,TGI
1,CCOC(=O)c1nc2ccccc2nc1NCc1cc(OC)c(OC)c(OC)c1,71.8 µM
2,CCSc1n/c(=C\c2ccco2)c2nncn12,> 100 µM
3,O=C1CSC(c2ccc([N+](=O)[O-])cc2)N1c1ccc(-n2c(-c3ccccc3)nc3ccccc3c2=O)cc1 (stereo not given),> 100 µM
4,COc1cc(OC)nc(-n2c(N)c(C#N)c3ccc([N+](=O)[O-])cc3c2=O)n1,> 100 µM
5,O=C(CCCN1CCC2(CC1)CC(=O)N(N1CCCCCC1)C2=O)c1ccccc1,> 100 µM
6,COc1ccc(-n2cnc3c2NC(C)(C)N=C3C(N)=O)c(OC)c1,> 100 µM
7,COc1cc(CO)c(CC(=O)NCCCc2ccccc2)cc1OC,> 100 µM
8,CC(=O)OCC1OC(c2nc3ccccc3s2)=CC(OC(C)=O)C1OC(C)=O (stereo not given),> 100 µM
9,Cc1cn(C2CC(O)C(COC(=O)NCCC(F)(F)C(F)(F)C(F)(F)C(F)(F)F)O2)c(=O)[nH]c1=O (stereo not given),> 100 µM
10,CC(C)(C)OC(=O)N1CCC(C(=O)O)CC1,> 100 µM
11,CCCCCCC(=O)O[C@H]1CC[C@H]2[C@@H]3CCC4C/C(=N/NC(=O)c5cccc6c(=O)c7ccccc7[nH]c56)C=C(C)[C@]4(C)[C@H]3CC[C@]12C (stereo not given in full),> 25 µM
12,COc1ccc(CNC(=O)NCn2cc(-c3ccccc3)nn2)cc1,> 100 µM

# Test system: KM12 colon
# Test: inhibition of tumour cell growth, NCI panel, 48 h
row,SMILES,TGI
1,CCOC(=O)c1nc2ccccc2nc1NCc1cc(OC)c(OC)c(OC)c1,> 100 µM
2,CCSc1n/c(=C\c2ccco2)c2nncn12,> 100 µM
3,O=C1CSC(c2ccc([N+](=O)[O-])cc2)N1c1ccc(-n2c(-c3ccccc3)nc3ccccc3c2=O)cc1 (stereo not given),> 100 µM
4,COc1cc(OC)nc(-n2c(N)c(C#N)c3ccc([N+](=O)[O-])cc3c2=O)n1,> 100 µM
5,COc1ccc(-n2cnc3c2NC(C)(C)N=C3C(N)=O)c(OC)c1,> 100 µM
6,COc1cc(CO)c(CC(=O)NCCCc2ccccc2)cc1OC,> 100 µM
7,CC(=O)OCC1OC(c2nc3ccccc3s2)=CC(OC(C)=O)C1OC(C)=O (stereo not given),> 100 µM
8,Cc1cn(C2CC(O)C(COC(=O)NCCC(F)(F)C(F)(F)C(F)(F)C(F)(F)F)O2)c(=O)[nH]c1=O (stereo not given),> 100 µM
9,CC(C)(C)OC(=O)N1CCC(C(=O)O)CC1,> 100 µM
10,CCCCCCC(=O)O[C@H]1CC[C@H]2[C@@H]3CCC4C/C(=N/NC(=O)c5cccc6c(=O)c7ccccc7[nH]c56)C=C(C)[C@]4(C)[C@H]3CC[C@]12C (stereo not given in full),> 25 µM
11,COc1ccc(CNC(=O)NCn2cc(-c3ccccc3)nn2)cc1,> 100 µM

# Test system: DU-145 prostate
# Test: inhibition of tumour cell growth, NCI panel, 48 h
row,SMILES,TGI
1,CCOC(=O)c1nc2ccccc2nc1NCc1cc(OC)c(OC)c(OC)c1,> 100 µM
2,CCSc1n/c(=C\c2ccco2)c2nncn12,> 100 µM
3,O=C1CSC(c2ccc([N+](=O)[O-])cc2)N1c1ccc(-n2c(-c3ccccc3)nc3ccccc3c2=O)cc1 (stereo not given),> 100 µM
4,COc1cc(OC)nc(-n2c(N)c(C#N)c3ccc([N+](=O)[O-])cc3c2=O)n1,> 100 µM
5,O=C(CCCN1CCC2(CC1)CC(=O)N(N1CCCCCC1)C2=O)c1ccccc1,> 100 µM
6,COc1ccc(-n2cnc3c2NC(C)(C)N=C3C(N)=O)c(OC)c1,> 100 µM
7,COc1cc(CO)c(CC(=O)NCCCc2ccccc2)cc1OC,> 100 µM
8,CC(=O)OCC1OC(c2nc3ccccc3s2)=CC(OC(C)=O)C1OC(C)=O (stereo not given),> 100 µM
9,Cc1cn(C2CC(O)C(COC(=O)NCCC(F)(F)C(F)(F)C(F)(F)C(F)(F)F)O2)c(=O)[nH]c1=O (stereo not given),> 100 µM
10,CC(C)(C)OC(=O)N1CCC(C(=O)O)CC1,> 100 µM
11,CCCCCCC(=O)O[C@H]1CC[C@H]2[C@@H]3CCC4C/C(=N/NC(=O)c5cccc6c(=O)c7ccccc7[nH]c56)C=C(C)[C@]4(C)[C@H]3CC[C@]12C (stereo not given in full),> 25 µM
12,COc1ccc(CNC(=O)NCn2cc(-c3ccccc3)nn2)cc1,> 100 µM

# Test system: K-562 leukemia
# Test: inhibition of tumour cell growth, NCI panel, 48 h
row,SMILES,TGI
1,CCOC(=O)c1nc2ccccc2nc1NCc1cc(OC)c(OC)c(OC)c1,> 100 µM
2,CCSc1n/c(=C\c2ccco2)c2nncn12,> 100 µM
3,O=C1CSC(c2ccc([N+](=O)[O-])cc2)N1c1ccc(-n2c(-c3ccccc3)nc3ccccc3c2=O)cc1 (stereo not given),> 100 µM
4,O=C(CCCN1CCC2(CC1)CC(=O)N(N1CCCCCC1)C2=O)c1ccccc1,> 100 µM
5,COc1ccc(-n2cnc3c2NC(C)(C)N=C3C(N)=O)c(OC)c1,> 100 µM
6,COc1cc(CO)c(CC(=O)NCCCc2ccccc2)cc1OC,> 100 µM
7,CC(=O)OCC1OC(c2nc3ccccc3s2)=CC(OC(C)=O)C1OC(C)=O (stereo not given),> 100 µM
8,Cc1cn(C2CC(O)C(COC(=O)NCCC(F)(F)C(F)(F)C(F)(F)C(F)(F)F)O2)c(=O)[nH]c1=O (stereo not given),> 100 µM
9,CCCCCCC(=O)O[C@H]1CC[C@H]2[C@@H]3CCC4C/C(=N/NC(=O)c5cccc6c(=O)c7ccccc7[nH]c56)C=C(C)[C@]4(C)[C@H]3CC[C@]12C (stereo not given in full),> 25 µM
10,COc1ccc(CNC(=O)NCn2cc(-c3ccccc3)nn2)cc1,> 100 µM

# Test system: HL-60(TB) leukemia
# Test: inhibition of tumour cell growth, NCI panel, 48 h
row,SMILES,TGI
1,CCOC(=O)c1nc2ccccc2nc1NCc1cc(OC)c(OC)c(OC)c1,> 100 µM
2,CCSc1n/c(=C\c2ccco2)c2nncn12,> 100 µM
3,O=C1CSC(c2ccc([N+](=O)[O-])cc2)N1c1ccc(-n2c(-c3ccccc3)nc3ccccc3c2=O)cc1 (stereo not given),> 100 µM
4,COc1cc(OC)nc(-n2c(N)c(C#N)c3ccc([N+](=O)[O-])cc3c2=O)n1,> 100 µM
5,O=C(CCCN1CCC2(CC1)CC(=O)N(N1CCCCCC1)C2=O)c1ccccc1,> 100 µM
6,COc1ccc(-n2cnc3c2NC(C)(C)N=C3C(N)=O)c(OC)c1,> 100 µM
7,COc1cc(CO)c(CC(=O)NCCCc2ccccc2)cc1OC,> 100 µM
8,CC(=O)OCC1OC(c2nc3ccccc3s2)=CC(OC(C)=O)C1OC(C)=O (stereo not given),> 100 µM
9,Cc1cn(C2CC(O)C(COC(=O)NCCC(F)(F)C(F)(F)C(F)(F)C(F)(F)F)O2)c(=O)[nH]c1=O (stereo not given),> 100 µM
10,CC(C)(C)OC(=O)N1CCC(C(=O)O)CC1,> 100 µM
11,CCCCCCC(=O)O[C@H]1CC[C@H]2[C@@H]3CCC4C/C(=N/NC(=O)c5cccc6c(=O)c7ccccc7[nH]c56)C=C(C)[C@]4(C)[C@H]3CC[C@]12C (stereo not given in full),> 25 µM
12,COc1ccc(CNC(=O)NCn2cc(-c3ccccc3)nn2)cc1,> 100 µM
